In patent publication US20260174859A1, “ISOINDOLINONE DERIVATIVE HAVING ARYLCYCLOALKYLAMIDE STRUCTURE, AND USE THEREOF” (ONCORD BIO INC, priority 2022, published 2026):

Legend:
[1] = system: NCI-H1155 (lung cancer cells); test: CytoX cell viability assay in NCI-H1155 lung cancer cells; settings: Homo sapiens, NCI-H1155, 72 h; for viability at 0.01 µM: read-out: NCI-H1155 (% viability) at 10 nM; for viability at 0.5 µM: read-out: NCI-H1155 (% viability) at 500 nM
Experimental: (§1) The viability of NCI-H1155 (lung cancer cells) was measured using the CytoX cell viability assay kit (LPS Solution, #CYT3000). […] CytoX solution was then added to the cells and incubated for 1 hour.

[2] = system: NCI-H1155 (lung cancer cells)
Experimental: as §1

KG-1 cells = test: Cytotoxicity assay (WST-1) in KG-1 cancer cells; assay type: cell-based; settings: Homo sapiens, 72 hours
Experimental: To evaluate the effects of the compounds of the present disclosure on cancer cells, a cytotoxicity assay was conducted as follows.
Cancer cells (KG-1) were seeded at a density of 10,000 cells per well in 96-well plates. The compound of the present disclosure and control compounds (Comparative Compounds 1, 2, and 3) were treated at predetermined concentrations. After 72 hours, the cells were treated with WST-1 reagent for 1 hour. Then, absorbance was read at 450 nm using a SpectraMax spectrophotometer to determine cell viability.

Compound: O=C1CCC(N2Cc3cc(CNC(=O)[C@@H]4C[C@H]4c4ccc(Cl)cc4)ccc3C2=O)C(=O)N1 (mixture of isomers) [Cpd. 5, (1R,2R)-2-(4-chlorophenyl)-N-((2-(2,6-dioxopiperidin-3-yl)-1-oxoisoindolin-5-yl)methyl)cyclopropane-1-carboxamide racemic mixture]
- viability at 0.01 µM [1]: 2%
- viability at 0.5 µM [1]: 4%

Compound: O=C1CCC(N2Cc3cc(CNC(=O)C(F)(F)c4ccc(Cl)cc4)ccc3C2=O)C(=O)N1 (stereo not drawn) [CC-90009 (Eragidomide), Eragidomide]
- NCI-H1155 (% viability) at 10 nM ([2]; 0.01 µM): 85.0%
- NCI-H1155 (% viability) at 500 nM ([2]; 0.5 µM): 23.25%

Compound: O=C1CCC(N2Cc3cc(CNC(=O)c4cc5ccccc5cn4)ccc3C2=O)C(=O)N1 (stereo not drawn) [Comparative Cpd. 1, N-((2-(2,6-dioxopiperidin-3-yl)-1-oxoisoindolin-5-yl)methyl) isoquinoline-3-carboxamide]
- IC50 (KG-1 cells): > 10 µM

Compound: O=C1CCC(N2Cc3cc(CNC(=O)c4cnc5ccccc5n4)ccc3C2=O)C(=O)N1 (stereo not drawn) [Comparative Cpd. 2, N-((2-(2,6-dioxopiperidin-3-yl)-1-oxoisoindolin-5-yl)methyl)quinoxaline-2-carboxamide]
- IC50 (KG-1 cells): > 10 µM

Compound: O=C1CCC(N2Cc3cc(CNC(=O)c4ccc5cc(Cl)ccc5n4)ccc3C2=O)C(=O)N1 (stereo not drawn) [Comparative Cpd. 3, 6-chloro-N-((2-(2,6-dioxopiperidin-3-yl)-1-oxoisoindolin-5-yl)methyl) quinoline-2-carboxamide]
- IC50 (KG-1 cells): 4.1 µM

Compound: O=C1CCC(N2Cc3cc(CNC(=O)[C@@H]4C[C@H]4c4ccccc4)ccc3C2=O)C(=O)N1 (stereo partly drawn) [Cpd. 1, (1R,2R)—N-((2-(2,6-dioxopiperidin-3-yl)-1-oxoisoindolin-5-yl)methyl)-2-phenylcyclopropane-1-carboxamide]
- IC50 (KG-1 cells): 0.002 µM

Compound: O=C1CCC(N2Cc3cc(CNC(=O)[C@@H]4C[C@H]4c4ccc(Cl)cc4)ccc3C2=O)C(=O)N1 (stereo partly drawn) [Cpd. 3, (1R,2R)-2-(4-chlorophenyl)-N-((2-(2,6-dioxopiperidin-3-yl)-1-oxoisoindolin-5-yl)methyl)cyclopropane-1-carboxamide]
- viability at 0.01 µM [1]: 4%
- viability at 0.5 µM [1]: 4%

Compound: O=C1CCC(N2Cc3cc(CNC(=O)[C@@H]4C[C@@H]4c4ccccc4)ccc3C2=O)C(=O)N1 (stereo partly drawn) [Cpd. 4, (1R,2S)—N-((2-(2,6-dioxopiperidin-3-yl)-1-oxoisoindolin-5-yl)methyl)-2-phenylcyclopropane-1-carboxamide]
- viability at 0.01 µM [1]: 94%
- viability at 0.5 µM [1]: 95%

Compound: O=C1CCC(N2Cc3cc(CNC(=O)[C@@H]4C[C@H]4c4cccc(Cl)c4)ccc3C2=O)C(=O)N1 (stereo partly drawn) [Cpd. 6, (1R,2R)-2-(3-chlorophenyl)-N-((2-(2,6-dioxopiperidin-3-yl)-1-oxoisoindolin-5-yl)methyl)cyclopropane-1-carboxamide]
- viability at 0.01 µM [1]: 5%
- viability at 0.5 µM [1]: 4%

Compound: O=C1CCC(N2Cc3cc(CNC(=O)[C@H]4C[C@@H]4c4ccccc4)ccc3C2=O)C(=O)N1 (stereo partly drawn) [Cpd. 7, (1S,2S)—N-((2-(2,6-dioxopiperidin-3-yl)-1-oxoisoindolin-5-yl)methyl)-2-phenylcyclopropane-1-carboxamide]
- viability at 0.01 µM [1]: 3%
- viability at 0.5 µM [1]: 4%

Compound: O=C1CCC(N2Cc3cc(CNC(=O)[C@@H]4C[C@H]4c4ccc(F)cc4)ccc3C2=O)C(=O)N1 (stereo partly drawn) [Cpd. 8, (1R,2R)—N-((2-(2,6-dioxopiperidin-3-yl)-1-oxoisoindolin-5-yl)methyl)-2-(4-fluorophenyl)cyclopropane-1-carboxamide]
- viability at 0.01 µM [1]: 48%
- viability at 0.5 µM [1]: 26%

Compound: O=C1CCC(N2Cc3cc(CNC(=O)[C@@H]4C[C@H]4c4cccc(F)c4)ccc3C2=O)C(=O)N1 (stereo partly drawn) [Cpd. 9, (1R,2R)—N-((2-(2,6-dioxopiperidin-3-yl)-1-oxoisoindolin-5-yl)methyl)-2-(3-fluorophenyl)cyclopropane-1-carboxamide]
- viability at 0.01 µM [1]: 52%
- viability at 0.5 µM [1]: 25%

Compound: O=C1CCC(N2Cc3cc(CNC(=O)[C@H]4C[C@@H]4c4cccc(Cl)c4)ccc3C2=O)C(=O)N1 (stereo partly drawn) [Cpd. 10, (1S,2S)-2-(3-chlorophenyl)-N-((2-(2,6-dioxopiperidin-3-yl)-1-oxoisoindolin-5-yl)methyl)cyclopropane-1-carboxamide]
- viability at 0.01 µM [1]: 39%
- viability at 0.5 µM [1]: 25%

Compound: O=C1CCC(N2Cc3cc(CNC(=O)C4CC4c4ccc(C(F)(F)F)cc4)ccc3C2=O)C(=O)N1 (stereo not drawn) [Cpd. 11, N-((2-(2,6-dioxopiperidin-3-yl)-1-oxoisoindolin-5-yl)methyl)-2-(4-(trifluoromethyl)phenyl)cyclopropane-1-carboxamide]
- viability at 0.01 µM [1]: 79%
- viability at 0.5 µM [1]: 34%

Compound: Cc1ccc([C@H]2C[C@@H]2C(=O)NCc2ccc3c(c2)CN(C2CCC(=O)NC2=O)C3=O)cc1 (stereo partly drawn) [Cpd. 12, (1S,2S)—N-((2-(2,6-dioxopiperidin-3-yl)-1-oxoisoindolin-5-yl)methyl)-2-(p-tolyl)cyclopropane-1-carboxamide]
- viability at 0.01 µM [1]: 44%
- viability at 0.5 µM [1]: 27%

Compound: O=C1CCC(N2Cc3cc(CNC(=O)C4CC4c4ccc(Cl)cc4Cl)ccc3C2=O)C(=O)N1 (stereo not drawn) [Cpd. 13, 2-(2,4-dichlorophenyl)-N-((2-(2,6-dioxopiperidin-3-yl)-1-oxoisoindolin-5-yl)methyl)cyclopropane-1-carboxamide]
- viability at 0.01 µM [1]: 27%
- viability at 0.5 µM [1]: 24%

Compound: O=C1CCC(N2Cc3cc(CNC(=O)C4CCC4c4ccccc4)ccc3C2=O)C(=O)N1 (stereo not drawn) [Cpd. 14, N-((2-(2,6-dioxopiperidin-3-yl)-1-oxoisoindolin-5-yl)methyl)-2-phenylcyclobutane-1-carboxamide]
- viability at 0.01 µM [1]: 96%
- viability at 0.5 µM [1]: 57%
